Laboratory results reported in patent US6737383B1, “Herbicidal oxadiazolidines” (priority 1999, dated 2004).

Experiments:
bedstraw = assay: Test B pre/postemergence bedstraw; type: in vivo, Galium aparine
Summary of the method: (§1)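 Herbicidal effect was estimated by eye on a ten-point control scale after plants spent twelve to sixteen days in a greenhouse following soil or foliar treatment. Foliar sprays targeted plants at one to four leaves; all doses were formulated in a non-phytotoxic solvent with surfactant.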

blackgrass = assay: Test B pre/postemergence blackgrass; type: in vivo, Alopecurus myosuroides
Summary of the method: as §1

surinam grass = assay: Test B pre/postemergence surinam grass; type: in vivo, Brachiaria decumbens
Summary of the method: as §1

corn = assay: Test B pre/postemergence corn; type: in vivo, Zea mays
Summary of the method: as §1

crabgrass = assay: Test B pre/postemergence crabgrass; type: in vivo, Digitaria sanguinalis
Summary of the method: as §1

giant foxtail = assay: Test B pre/postemergence giant foxtail; type: in vivo, Setaria faberii
Summary of the method: as §1

morningglory = assay: Test B pre/postemergence morningglory; type: in vivo, Ipomoea hederacea
Summary of the method: as §1

pigweed = assay: Test B pre/postemergence pigweed; type: in vivo, Amaranthus retroflexus
Summary of the method: as §1

rape = assay: Test B pre/postemergence rape; type: in vivo, Brassica napus
Summary of the method: as §1

soybean = assay: Test B pre/postemergence soybean; type: in vivo, Glycine max
Summary of the method: as §1

velvetleaf = assay: Test B pre/postemergence velvetleaf; type: in vivo, Abutilon theophrasti
Summary of the method: as §1

wheat = assay: Test B pre/postemergence wheat; type: in vivo, Triticum aestivum
Summary of the method: as §1

wild oat = assay: Test B pre/postemergence wild oat; type: in vivo, Avena fatua
Summary of the method: as §1

purple nutsedge = assay: Test B pre/postemergence purple nutsedge; type: in vivo, Cyperus rotundus
Summary of the method: as §1

rice = assay: Test B flood test rice; type: in vivo, Oryza sativa
Summary of the method: (§2)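 Read-out is a visual response score from 0 (no effect) to 10 (complete control), assigned by comparison with untreated controls. Treatment was applied at the 2-leaf stage, and plants stayed in the greenhouse for twelve to sixteen days before scoring.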

duck salad = assay: Test B flood test duck salad; type: in vivo, Heteranthera limosa
Summary of the method: as §2

[1] = Postemergence, Rate 62 g/ha, scale 0 to 10, 0 is no effect, 10 is complete control
[2] = Postemergence, Rate 250 g/ha, scale 0 to 10, 0 no effect, 10 complete control
[3] = Preemergence, Rate 62 g/ha, scale 0 to 10 (0 no effect, 10 complete control)
[4] = Preemergence, Rate 125 g/ha, scale 0 to 10 (0 no effect, 10 complete control)
[5] = Preemergence, Rate 250 g/ha, scale of 0 to 10 where 0 is no effect and 10 is complete control
[6] = Preemergence, Rate 500 g/ha, scale 0 (no effect) to 10 (complete control)
[7] = Rate 125 g/ha, Postemergence, scale 0 to 10, 0 no effect, 10 complete control
[8] = Rate 500 g/ha, Postemergence, scale 0 to 10, 0 no effect, 10 complete control
[9] = Rate 62 g/ha, headed Pre-emergence (flood test species), scale 0 to 10 (0 no effect, 10 complete control)
[10] = Rate 125 g/ha, Pre-emergence, flood test species, scale 0 to 10 where 0 is no effect and 10 is complete control
[11] = Rate 250 g/ha, headed Pre-emergence (flood test species), scale 0 to 10 (0 no effect, 10 complete control)
[12] = Rate 500 g/ha, headed Pre-emergence (flood test species), scale 0 to 10 (0 no effect, 10 complete control)

CCN(Cc1ccccc1)C(=O)n1oc(=O)n(-c2c(C)cccc2C)c1=O [Compound 70]
0: Bedstraw plant response rating (bedstraw; [1]) | Bedstraw plant response rating (bedstraw; [2]) | Bedstraw plant response rating (bedstraw; [3]) | Plant response rating, Bedstraw (bedstraw; [4]) | Plant response rating, Bedstraw (bedstraw; [5]) | Bedstraw plant response rating (bedstraw; [6]) | Bedstraw plant response rating (bedstraw; [7]) | Bedstraw plant response rating (bedstraw; [8]) | Blackgrass plant response rating (blackgrass; [1]) | Blackgrass plant response rating (blackgrass; [2]) | Blackgrass plant response rating (blackgrass; [3]) | Plant response rating, Blackgrass (blackgrass; [4]) | Plant response rating, Blackgrass (blackgrass; [5]) | Blackgrass plant response rating (blackgrass; [6]) | Blackgrass plant response rating (blackgrass; [7]) | Blackgrass plant response rating (blackgrass; [8]) | B. signalgrass plant response rating (surinam grass; [1]) | B. signalgrass plant response rating (surinam grass; [2]) | B. signalgrass plant response rating (surinam grass; [3]) | Plant response rating, B. signalgrass (surinam grass; [4]) | Plant response rating, B. signalgrass (surinam grass; [5]) | B. signalgrass plant response rating (surinam grass; [6]) | B. signalgrass plant response rating (surinam grass; [7]) | B. signalgrass plant response rating (surinam grass; Rate 500 g/ha, Postemergence, scale of 0 to 10 where 0 is no effect and 10 is complete control) | Corn plant response rating (corn; [1]) | Corn plant response rating (corn; [2]) | Corn plant response rating (corn; [3]) | Plant response rating, Corn (corn; [4]) | Plant response rating, Corn (corn; [5]) | Corn plant response rating (corn; [6]) | Corn plant response rating (corn; [7]) | Corn plant response rating (corn; [8]) | Crabgrass plant response rating (crabgrass; [1]) | Crabgrass plant response rating (crabgrass; [2]) | Crabgrass plant response rating (crabgrass; [3]) | Plant response rating, Crabgrass (crabgrass; [4]) | Plant response rating, Crabgrass (crabgrass; [5]) | Crabgrass plant response rating (crabgrass; [6]) | Crabgrass plant response rating (crabgrass; [7]) | Crabgrass plant response rating (crabgrass; [8]) | Giant foxtail plant response rating (giant foxtail; [1]) | Giant foxtail plant response rating (giant foxtail; [2]) | Giant foxtail plant response rating (giant foxtail; [3]) | Plant response rating, Giant foxtail (giant foxtail; [4]) | Plant response rating, Giant foxtail (giant foxtail; [5]) | Giant foxtail plant response rating (giant foxtail; [6]) | Giant foxtail plant response rating (giant foxtail; [7]) | Giant foxtail plant response rating (giant foxtail; [8]) | Morningglory plant response rating (morningglory; [1]) | Morningglory plant response rating (morningglory; [2]) | Morningglory plant response rating (morningglory; [3]) | Plant response rating, Morningglory (morningglory; [4]) | Plant response rating, Morningglory (morningglory; [5]) | Morningglory plant response rating (morningglory; [6]) | Morningglory plant response rating (morningglory; [7]) | Morningglory plant response rating (morningglory; [8]) | Redroot pigweed plant response rating (pigweed; [1]) | Redroot pigweed plant response rating (pigweed; [2]) | Redroot pigweed plant response rating (pigweed; [3]) | Plant response rating, Redroot pigweed (pigweed; [4]) | Plant response rating, Redroot pigweed (pigweed; [5]) | Redroot pigweed plant response rating (pigweed; [6]) | Redroot pigweed plant response rating (pigweed; [7]) | Redroot pigweed plant response rating (pigweed; [8]) | Rape plant response rating (rape; [1]) | Rape plant response rating (rape; [2]) | Rape plant response rating (rape; [3]) | Plant response rating, Rape (rape; [4]) | Plant response rating, Rape (rape; [5]) | Rape plant response rating (rape; [6]) | Rape plant response rating (rape; [7]) | Rape plant response rating (rape; [8]) | Soybean plant response rating (soybean; [1]) | Soybean plant response rating (soybean; [2]) | Soybean plant response rating (soybean; [3]) | Plant response rating, Soybean (soybean; [4]) | Plant response rating, Soybean (soybean; [5]) | Soybean plant response rating (soybean; [6]) | Soybean plant response rating (soybean; [7]) | Soybean plant response rating (soybean; [8]) | Velvetleaf plant response rating (velvetleaf; [1]) | Velvetleaf plant response rating (velvetleaf; [2]) | Velvetleaf plant response rating (velvetleaf; [3]) | Plant response rating, Velvetleaf (velvetleaf; [4]) | Plant response rating, Velvetleaf (velvetleaf; [5]) | Velvetleaf plant response rating (velvetleaf; [6]) | Velvetleaf plant response rating (velvetleaf; [7]) | Velvetleaf plant response rating (velvetleaf; [8]) | Wheat plant response rating (wheat; [1]) | Wheat plant response rating (wheat; [2]) | Wheat plant response rating (wheat; [3]) | Plant response rating, Wheat (wheat; [4]) | Plant response rating, Wheat (wheat; [5]) | Wheat plant response rating (wheat; [6]) | Wheat plant response rating (wheat; [7]) | Wheat plant response rating (wheat; [8]) | Wild oats plant response rating (wild oat; [1]) | Wild oats plant response rating (wild oat; [2]) | Wild oats plant response rating (wild oat; [3]) | Plant response rating, Wild oats (wild oat; [4]) | Plant response rating, Wild oats (wild oat; [5]) | Wild oats plant response rating (wild oat; [6]) | Wild oats plant response rating (wild oat; [7]) | Wild oats plant response rating (wild oat; [8]) | Nutsedge plant response rating (purple nutsedge; [1]) | Nutsedge plant response rating (purple nutsedge; [2]) | Nutsedge plant response rating (purple nutsedge; [3]) | Plant response rating, Nutsedge (purple nutsedge; [4]) | Plant response rating, Nutsedge (purple nutsedge; [5]) | Nutsedge plant response rating (purple nutsedge; [6]) | Nutsedge plant response rating (purple nutsedge; [7]) | Nutsedge plant response rating (purple nutsedge; [8]) | Rice plant response rating (rice; [9]) | Rice plant response rating (rice; [10]) | Rice plant response rating (rice; [11]) | Plant response rating, Rice (rice; [12]) | Ducksalad plant response rating (duck salad; [9]) | Ducksalad plant response rating (duck salad; [10]) | Ducksalad plant response rating (duck salad; [11]) | Plant response rating, Ducksalad (duck salad; [12])
